According to PubChem BioAssay (NCI):
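Cultured in 96-well plates, cells were exposed to test compound for 48 hours across five concentrations. Definition used: TGI = concentration required for complete inhibition of growth.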

Tests used:
Assay in all cases: growth of human tumour cells (NCI), 48 h
786-0 renal = test system: 786-0 renal
SF-295 CNS = test system: SF-295 CNS
HT29 colon = test system: HT29 colon
SNB-75 CNS = test system: SNB-75 CNS
COLO 205 colon = test system: COLO 205 colon
NCI-H460 lung = test system: NCI-H460 lung
SK-MEL-2 melanoma = test system: SK-MEL-2 melanoma
TK-10 renal = test system: TK-10 renal
UACC-257 melanoma = test system: UACC-257 melanoma
HOP-62 NSCLC = test system: HOP-62 NSCLC
MALME-3M melanoma = test system: MALME-3M melanoma
A498 renal = test system: A498 renal
LOX IMVI melanoma = test system: LOX IMVI melanoma
SR leukemia = test system: SR leukemia
RXF 393 renal = test system: RXF 393 renal
SK-OV-3 ovarian = test system: SK-OV-3 ovarian
HCT-116 colon = test system: HCT-116 colon
SF-268 CNS = test system: SF-268 CNS
MCF7 breast = test system: MCF7 breast

Row | Structure (SMILES) | TGI (786-0 renal) [µM] | TGI (SF-295 CNS) [µM] | TGI (HT29 colon) [µM] | TGI (SNB-75 CNS) [µM] | TGI (COLO 205 colon) [µM] | TGI (NCI-H460 lung) [µM] | TGI (SK-MEL-2 melanoma) [µM] | TGI (TK-10 renal) [µM] | TGI (UACC-257 melanoma) [µM] | TGI (HOP-62 NSCLC) [µM] | TGI (MALME-3M melanoma) [µM] | TGI (A498 renal) [µM] | TGI (LOX IMVI melanoma) [µM] | TGI (SR leukemia) [µM] | TGI (RXF 393 renal) [µM] | TGI (SK-OV-3 ovarian) [µM] | TGI (HCT-116 colon) [µM] | TGI (SF-268 CNS) [µM] | TGI (MCF7 breast) [µM]
1 | Cc1ccc(S(=O)(=O)N2CCC(=O)c3cc(Br)ccc32)cc1 | > 67.2 | 55.7 | > 100 | 59.6 | 31.3 | > 55.4 | 36.3 | 54.4 | 46.6 | 59.7 | > 100 | 30.1 | > 64.6 | > 100 | 53.6 | 63.2 | > 100 | > 94.8 | > 49.1
2 | COC(=O)C(Cc1ccccc1)NP(=O)(O)OCC1OC(n2cc(Br)c(=O)[nH]c2=O)CC1O (stereo not given) | > 100 | > 100 | > 100 | > 100 | > 100 | > 100 | > 100 | > 100 | > 100 | > 100 | > 100 | > 100 | > 100 | > 100 | > 100 | > 100 | > 100 | > 100 | > 100
3 | CC1(C)C2C=C(CCN3CCOCC3)CC1C2 (stereo not given) | > 100 | > 100 | > 100 | > 100 | > 100 | > 100 | > 100 | > 100 | > 100 | > 100 | > 100 | > 100 | > 100 | > 100 | > 100 | > 100 | > 100 | > 100 | > 100
4 | O=[N+]([O-])c1c(F)c(F)c2c(c1F)Nc1ccccc1S2 | 21.6 | 34.2 | 3.63 | 32.6 | 27.3 | 41.8 | 4.75 | 38.4 | 19.8 | 27.6 | 18.5 | 30.4 | 3.39 | 5.61 | 8.88 | 35.9 | 6.18 | 6 | 17.8
5 | CC(=O)OC/C=C/[C@H](O[Si](C)(C)C(C)(C)C)[C@@H](O)/C=C/COC(C)=O | > 100 | > 100 | > 100 | > 100 | > 100 | > 100 | > 100 | > 100 | > 100 | > 100 | > 100 | > 100 | > 100 | 86.2 | > 100 | > 100 | > 100 | > 100 | > 100
6 | O=[N+]([O-])C(=C(Nc1ccccc1)Nc1ccccc1)/C(Cl)=C(\Cl)[N+](=O)[O-] | 15 | 26.1 | 8.73 | 22.4 | 7.08 | 53.7 | 31.8 | 16.9 | 19.7 | 26.4 | 14.2 | 46.2 | 11.4 | > 100 | 6.13 | > 100 | 10.7 | 14.6 | 20.3
7 | c1ccc(-c2nnc(-c3ccccn3)c3c2C[C@@H]2C[C@@H]4Cc5c(-c6ccccn6)nnc(-c6ccccn6)c5[C@@H]4[C@H]32)nc1 | > 100 | > 100 | > 100 | > 100 | > 100 | 88 | > 100 | > 100 | > 100 | > 100 | > 100 | 6.35 | > 100 | > 100 | > 100 | > 100 | > 100 | > 100 | > 100
8 | O=C1NCC(CSc2nc3cc(C4CCCc5c4[nH]c4ccccc54)ccc3o2)N1 (stereo not given) | > 100 | > 100 | > 100 | > 100 | > 100 | > 100 | > 100 | > 100 | > 100 | > 100 | > 100 | 50.6 | > 100 | > 100 | > 100 | > 100 | > 100 | > 100 | > 100
9 | Cc1ccc([N+](=O)[O-])cc1S(=O)(=O)Nc1ccc(C2=NOC(c3ccco3)C2)cc1 (stereo not given) | 34.9 | 46.5 | 56 | 35.7 | 80.9 | 37.2 | 33.8 | > 100 | 39.1 | 30.8 | 53.5 | 34.6 | 40.2 | 23.8 | 23.3 | 97.4 | 31.9 | 97.1 | 35.5
10 | CN1CCc2c3n(c4cc(Br)ccc24)[C@H](O)CCCC31 (stereo not given in full) | 3.08 | 3.53 | 3.28 | 5.83 | 3.24 | 2.97 | 1.7 | > 10 | 5.61 | > 10 | 4.63 | > 10 | 3.29 | 4.05 | 7.74 | > 10 | 3.07 | > 10 | 3.24
